Legend:
human V1bR = human V1bR (Homo sapiens, UniProt P47901); assay: Inhibition activity on human V1bR (Fluo-4 calcium assay, HEK293/human V1bR pool cells); assay type: cell-based; settings: vasopressin 3 nM
Description: The inhibition effect of the compounds of the present invention on the activity of human V1bR protein expressed in HEK293/human V1bR cells was determined by the following experimental method:
The pcDNA3.1-V1bR plasmid was transferred into HEK293 cells with the Lipofectamine® 3000 transfection reagent; G418 was added on the next day, and the HEK293/human V1bR pool cell lines were obtained.
HEK293/human V1bR pool cells were inoculated in a 96-well plate with an inoculation density of 25,000 cells/well one day in advance. On the next day, a loading buffer containing Fluo-4 dye was formulated using the reagents in the Fluo-4 NW calcium assay kit, and the culture medium was then removed; 100 μl of the loading buffer containing Fluo-4 dye were added to each well, and the plate was incubated at 37° C. for 30 minutes. After that, the plate was moved to room temperature and equilibrated for 10 minutes. The compounds were formulated into 10^6, 10^5, 10^4, 10^3, 10^2 and 10^1 nM. 1 μl of the compounds in each concentration was added to each well, and the plate was incubated at room temperature for 10 minutes. 50 μl of vasopressin polypeptide (3 nM) were automatically added by the machine, and the values were immediately detected at 494/516 nM by the flexstation 3 microplate reader. IC50 values of the compounds were calculated by Graphpad prism software using fluorescence signals corresponding to different concentrations.
The inhibition activity of the compounds of the present invention on human V1bR was determined by the above test, and the obtained IC50 values are shown in Table 3.

[1] = Brain permeability of rats (Kp-unbound); assay type: in vivo; settings: both sexes, rat, not told, po; SD rats, 10 mg/kg intragastrically, 0.5 h after administration; read-out: Kp-unbound (blood-brain permeability index)
Description: The activity of the compounds of the present invention on the brain permeability of rats was determined by the following experimental method:
Four SD rats (half male and half female) were maintained in a 12 hours light/12 hours dark cycle, in a constant temperature of 24±3° C. and a humidity of 50-60%, and free access to food and water. The compounds were administered intragastrically to the rats after fasting overnight. The administration dosage was 10 mg/kg. The administration group was sacrificed after blood collection at 0.5 h to 2 h after administration (blood volume: 0.5 ml). The blood sample was stored in heparinized tubes, and centrifuged for 10 minutes at 3500 rpm to separate the plasma, which was marked as plasma 1 and stored at […]. The animal was decapitated after sacrificing, and the brain tissue was collected. The residual blood in the brain tissue was sucked with a filter paper, which was marked as brain tissue 1, and stored at 0° C. ten minutes later. Another three animals were treated by the same method as that of administration group to obtain blank plasma and brain tissue 2.
The drug compounds were diluted to 50 mM with DMSO to obtain a stock solution I. An appropriate amount of stock solution I was diluted with methanol to obtain a diluted stock solution II (200 μM). 10 μl of stock solution II was moved to a 1.5 ml Eppendorf tube, and then added with 990 μl of blank plasma, and mixed well to obtain 2 μM of plasma sample 2 (concentration of DMSO≤0.2%), which was used for the determination of plasma protein binding rate at this concentration. […]
The equilibrium dialysis tube of RED Device Inserts was inserted into a 96-well plate. […] The chromatographic peak area ratios of the total drug (plasma chamber) and the free drug (buffer chamber) to the internal standard were determined directly by the LC/MS/MS method established above respectively, and the free percent (fu plasma %) was calculated.
Brain tissue protein binding equilibrium dialysis process: the blank brain tissue 2 was formulated into a blank brain homogenate with PBS (pH 7.4) according to a dilution factor of 11, and added with compound to formulate a 2 μM brain homogenate. Other procedures were the same with that of plasma protein binding, the chromatographic peak area ratios of the total drug (brain homo chamber) and the free drug (buffer chamber) to the internal standard were determined by the established LC/MS/MS method respectively, and the free percent (fu brain hom %) was calculated.
1) The drug concentrations in plasma 1 and brain tissue 1 of rats 0.5 h after administration were determined by the established LC/MS/MS method respectively, which were the total concentration (Ctotal, p and Ctotal, b); […]

Question: Which results are given for `COCc1nnc(N2CC(c3cccc4cc(F)ccc34)C2)n1-c1ccc(OC)nc1` [Example 2, 5-(3-(3-(6-Fluoronaphthalen-1-yl)azetidin-1-yl)-5-(methoxymethyl)-4H-1,2,4-triazol-4-yl)-2-methoxypyridine]?
Answer: IC50 (human V1bR): 26 µM; Kp at 0.5 h [1]: 0.199

Question: Which IC50 (human V1bR) does the source give for `COCc1nnc(N2CC(n3cc(C)c4cc(F)ccc43)C2)n1-c1ccc(OC)nc1` [Example 17, 5-Fluoro-1-(1-(5-(methoxymethyl)-4-(6-methoxypyridin-3-yl)-4H-1,2,4-triazol-3-yl)azetidin-3-yl)-3-methyl-1H-indole] here?
Answer: Its IC50 is 19.8 µM.

Question: And the Kp at 0.5 h [1]?
Answer: Its Kp at 0.5 h is 0.295.

Source: patent US10889569B2, “Condensed ring group azacyclobutyl triazole derivative, preparation method therefor and use thereof in medicine” (Jiangsu Hengrui Medicine Co., Ltd., priority 2016, dated 2021)
